Data published in article PMC9684079, “Pharmacological targeting of glutamatergic neurons within the brainstem for weight reduction” (Nature Metabolism, 2022).

What was measured:
Calcium Channel N-type = biological target: T1, Calcium Channel N-type (Rattus norvegicus, UniProt Q02294); assay: biochemical; design: Cerep/Eurofins selectivity panel, receptors, channels and transporters, per cent inhibition at 10 uM; conditions: read-out: % Inhibition
T1 construct: gene Cacna1b

[1] = biological target: T2, Peptidase, Tumor necrosis factorα Converting enzyme (TACE) (Homo sapiens, UniProt P78536); assay: biochemical; design: Cerep/Eurofins selectivity panel, enzymes, per cent inhibition at 10 uM; conditions: read-out: % Inhibition
T2 construct: gene ADAM17

Xanthine Oxidase = biological target: T3, Xanthine Oxidase (Bos taurus, UniProt P80457); assay: biochemical; design: Cerep/Eurofins selectivity panel, enzymes, per cent inhibition at 10 uM; conditions: read-out: % Inhibition
T3 construct: gene XDH

[2] = biological target: T4, Peptidase, Matrix metalloprotease, neutral endopeptidase (Homo sapiens, UniProt P08473); assay: biochemical; design: Cerep/Eurofins selectivity panel, enzymes, per cent inhibition at 10 uM; conditions: read-out: % Inhibition
T4 construct: gene MME

[3] = biological target: T5, Nitric Oxide Synthase, neuronal (nNOS) (Rattus norvegicus, UniProt P29476); assay: biochemical; design: Cerep/Eurofins selectivity panel, enzymes, per cent inhibition at 10 uM; conditions: read-out: % Inhibition
T5 construct: gene Nos1
T5 sequence (P29476 whole entry): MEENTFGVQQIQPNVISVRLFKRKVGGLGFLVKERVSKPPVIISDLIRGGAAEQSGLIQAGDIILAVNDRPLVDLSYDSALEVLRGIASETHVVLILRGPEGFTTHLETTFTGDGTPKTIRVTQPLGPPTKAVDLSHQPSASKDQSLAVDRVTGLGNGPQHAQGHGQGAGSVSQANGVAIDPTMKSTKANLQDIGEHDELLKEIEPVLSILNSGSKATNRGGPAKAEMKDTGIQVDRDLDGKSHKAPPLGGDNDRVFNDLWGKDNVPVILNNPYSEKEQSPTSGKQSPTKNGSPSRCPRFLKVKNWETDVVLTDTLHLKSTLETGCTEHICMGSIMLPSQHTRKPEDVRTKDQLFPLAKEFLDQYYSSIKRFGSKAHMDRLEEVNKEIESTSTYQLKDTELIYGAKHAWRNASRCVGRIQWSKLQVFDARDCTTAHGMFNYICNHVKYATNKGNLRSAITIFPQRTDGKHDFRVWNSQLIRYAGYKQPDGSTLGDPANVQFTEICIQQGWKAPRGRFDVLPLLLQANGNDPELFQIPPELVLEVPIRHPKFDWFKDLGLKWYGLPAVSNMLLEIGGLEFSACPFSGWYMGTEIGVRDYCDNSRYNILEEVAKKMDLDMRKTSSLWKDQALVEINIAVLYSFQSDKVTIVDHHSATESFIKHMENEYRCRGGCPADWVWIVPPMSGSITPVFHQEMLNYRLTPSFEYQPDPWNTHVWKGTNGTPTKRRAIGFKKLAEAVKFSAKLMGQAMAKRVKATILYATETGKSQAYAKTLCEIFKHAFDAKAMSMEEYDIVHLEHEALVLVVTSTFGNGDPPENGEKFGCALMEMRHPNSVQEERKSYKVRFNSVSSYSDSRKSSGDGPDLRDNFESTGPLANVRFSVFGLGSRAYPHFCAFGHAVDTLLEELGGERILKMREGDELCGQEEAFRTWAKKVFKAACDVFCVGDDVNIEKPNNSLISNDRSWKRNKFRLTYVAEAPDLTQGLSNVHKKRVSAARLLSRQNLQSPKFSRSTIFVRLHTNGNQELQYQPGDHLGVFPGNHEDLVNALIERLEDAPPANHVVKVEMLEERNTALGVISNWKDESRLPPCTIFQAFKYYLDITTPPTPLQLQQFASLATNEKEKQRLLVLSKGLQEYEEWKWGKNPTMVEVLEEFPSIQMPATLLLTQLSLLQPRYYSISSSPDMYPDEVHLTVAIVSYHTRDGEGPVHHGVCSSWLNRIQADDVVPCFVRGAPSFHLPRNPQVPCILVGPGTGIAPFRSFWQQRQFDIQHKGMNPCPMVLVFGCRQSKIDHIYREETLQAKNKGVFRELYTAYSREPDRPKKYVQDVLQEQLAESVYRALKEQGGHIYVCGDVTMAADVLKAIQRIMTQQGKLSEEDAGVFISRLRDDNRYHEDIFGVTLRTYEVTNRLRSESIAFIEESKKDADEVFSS

[4] = biological target: T6, Protein Tyrosine Kinase, ZA70 (ZAP-70) (Homo sapiens, UniProt P43403); assay: biochemical; design: Cerep/Eurofins selectivity panel, enzymes, per cent inhibition at 10 uM; conditions: read-out: % Inhibition
T6 construct: gene ZAP70

mouse Hcrtr1 = biological target: T7, mouse Hcrtr1 (Mus musculus, UniProt P58307); assay: FLIPR Ca2+ flux, antagonism of orexin A response; type: cell-based
T7 construct: CHO-K1 cells expressing Gα16 and mouse Hcrtr1

[5] = biological target: T8, Serotonin (5-Hydroxytryptamine) 5-HT4 (Cavia porcellus, UniProt O70528); assay: biochemical; design: Cerep/Eurofins selectivity panel, receptors, channels and transporters, per cent inhibition at 10 uM; conditions: read-out: % Inhibition
T8 construct: gene HTR4
T8 sequence (O70528 whole entry): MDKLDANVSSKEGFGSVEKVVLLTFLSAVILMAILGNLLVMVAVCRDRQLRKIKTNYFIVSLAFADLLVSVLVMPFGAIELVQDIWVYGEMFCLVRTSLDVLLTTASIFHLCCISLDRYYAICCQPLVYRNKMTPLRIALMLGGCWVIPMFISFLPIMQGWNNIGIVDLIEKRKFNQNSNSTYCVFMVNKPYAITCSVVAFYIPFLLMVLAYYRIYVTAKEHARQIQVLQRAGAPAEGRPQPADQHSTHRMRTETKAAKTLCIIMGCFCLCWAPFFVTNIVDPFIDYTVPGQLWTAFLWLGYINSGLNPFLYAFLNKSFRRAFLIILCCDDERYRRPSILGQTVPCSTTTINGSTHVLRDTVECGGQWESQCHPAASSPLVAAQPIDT

5-Lipoxygenase = biological target: T9, 5-Lipoxygenase (Homo sapiens, UniProt P09917); assay: biochemical; design: Cerep/Eurofins selectivity panel, enzymes, per cent inhibition at 10 uM; conditions: read-out: % Inhibition
T9 construct: gene ALOX5

[6] = biological target: T10, Phosphodiesterase PDE10A2 (Homo sapiens, UniProt Q9Y233); assay: biochemical; design: Cerep/Eurofins selectivity panel, enzymes, per cent inhibition at 10 uM; conditions: read-out: % Inhibition
T10 construct: gene PDE10A; isoform PDE10A2

Peptidase, Factor Xa = biological target: T11, Peptidase, Factor Xa (Homo sapiens, UniProt P00742); assay: biochemical; design: Cerep/Eurofins selectivity panel, enzymes, per cent inhibition at 10 uM; conditions: read-out: % Inhibition
T11 construct: gene F10; factor Xa
T11 sequence (P00742 whole entry): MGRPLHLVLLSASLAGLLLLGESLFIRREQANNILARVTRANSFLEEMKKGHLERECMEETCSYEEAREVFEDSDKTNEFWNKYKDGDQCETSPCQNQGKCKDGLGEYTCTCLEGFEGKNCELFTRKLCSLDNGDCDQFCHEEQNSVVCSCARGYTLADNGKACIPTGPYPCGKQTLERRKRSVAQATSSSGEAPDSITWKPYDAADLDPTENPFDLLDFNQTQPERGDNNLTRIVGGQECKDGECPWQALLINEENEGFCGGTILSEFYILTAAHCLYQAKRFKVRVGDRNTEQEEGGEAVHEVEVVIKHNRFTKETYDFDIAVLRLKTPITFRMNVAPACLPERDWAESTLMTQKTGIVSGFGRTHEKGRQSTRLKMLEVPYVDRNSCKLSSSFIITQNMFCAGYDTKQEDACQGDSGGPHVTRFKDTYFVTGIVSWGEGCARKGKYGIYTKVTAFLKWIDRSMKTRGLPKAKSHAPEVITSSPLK

Monoamine Oxidase MAO-A = biological target: T12, Monoamine Oxidase MAO-A (Homo sapiens, UniProt P21397); assay: biochemical; design: Cerep/Eurofins selectivity panel, enzymes, per cent inhibition at 10 uM; conditions: read-out: % Inhibition
T12 construct: gene MAOA
T12 sequence (P21397 whole entry): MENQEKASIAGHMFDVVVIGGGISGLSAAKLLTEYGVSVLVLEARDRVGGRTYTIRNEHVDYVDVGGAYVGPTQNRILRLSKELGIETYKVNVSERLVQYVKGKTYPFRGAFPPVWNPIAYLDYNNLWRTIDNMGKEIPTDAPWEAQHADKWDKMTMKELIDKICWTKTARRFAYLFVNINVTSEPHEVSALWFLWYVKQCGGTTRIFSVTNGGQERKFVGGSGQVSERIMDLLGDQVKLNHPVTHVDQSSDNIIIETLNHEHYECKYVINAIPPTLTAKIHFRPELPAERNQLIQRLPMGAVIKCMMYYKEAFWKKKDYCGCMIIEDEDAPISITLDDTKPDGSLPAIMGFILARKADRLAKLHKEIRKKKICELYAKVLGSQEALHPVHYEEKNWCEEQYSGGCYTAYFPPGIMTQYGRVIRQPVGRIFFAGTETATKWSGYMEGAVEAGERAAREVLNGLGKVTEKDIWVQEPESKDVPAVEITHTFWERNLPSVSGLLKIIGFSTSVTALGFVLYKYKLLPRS

Carbonic Anhydrase II = biological target: T13, Carbonic Anhydrase II (Homo sapiens, UniProt P00918); assay: biochemical; design: Cerep/Eurofins selectivity panel, enzymes, per cent inhibition at 10 uM; conditions: read-out: % Inhibition
T13 construct: gene CA2

[7] = biological target: T14, Peptidase, Matrix metalloprotease-7 (MMP-7) (Homo sapiens, UniProt P09237); assay: biochemical; design: Cerep/Eurofins selectivity panel, enzymes, per cent inhibition at 10 uM; conditions: read-out: % Inhibition
T14 construct: gene MMP7
T14 sequence (P09237 whole entry): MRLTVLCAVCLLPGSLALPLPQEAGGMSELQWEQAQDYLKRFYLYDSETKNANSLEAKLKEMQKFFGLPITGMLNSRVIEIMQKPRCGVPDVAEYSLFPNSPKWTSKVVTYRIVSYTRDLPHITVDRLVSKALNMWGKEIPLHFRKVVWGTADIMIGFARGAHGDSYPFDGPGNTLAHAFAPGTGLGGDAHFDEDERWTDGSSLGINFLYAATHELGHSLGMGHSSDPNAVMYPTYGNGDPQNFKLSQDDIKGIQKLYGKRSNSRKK

[8] = biological target: Protein Serine/Threonine Kinase, MAPK14 (p38a) (Homo sapiens, UniProt Q16539); assay: biochemical; design: Cerep/Eurofins selectivity panel, enzymes, per cent inhibition at 10 uM; conditions: read-out: % Inhibition
Sequence of Protein Serine/Threonine Kinase, MAPK14 (p38a) (Q16539 whole entry): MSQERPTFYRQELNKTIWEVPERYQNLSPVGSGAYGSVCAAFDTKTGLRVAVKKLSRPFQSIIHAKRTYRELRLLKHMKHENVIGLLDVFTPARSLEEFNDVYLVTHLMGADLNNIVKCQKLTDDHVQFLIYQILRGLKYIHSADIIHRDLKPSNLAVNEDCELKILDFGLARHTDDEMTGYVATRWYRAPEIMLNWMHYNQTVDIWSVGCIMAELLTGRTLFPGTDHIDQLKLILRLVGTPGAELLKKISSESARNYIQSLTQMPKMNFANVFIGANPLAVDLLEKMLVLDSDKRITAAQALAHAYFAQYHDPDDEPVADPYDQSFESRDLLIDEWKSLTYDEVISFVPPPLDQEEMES

[9] = biological target: Protein Serine/Threonine Kinase, MAPK3 (ERK1) (Homo sapiens, UniProt P27361); assay: biochemical; design: Cerep/Eurofins selectivity panel, enzymes, per cent inhibition at 10 uM; conditions: read-out: % Inhibition
Sequence of Protein Serine/Threonine Kinase, MAPK3 (ERK1) (P27361 whole entry): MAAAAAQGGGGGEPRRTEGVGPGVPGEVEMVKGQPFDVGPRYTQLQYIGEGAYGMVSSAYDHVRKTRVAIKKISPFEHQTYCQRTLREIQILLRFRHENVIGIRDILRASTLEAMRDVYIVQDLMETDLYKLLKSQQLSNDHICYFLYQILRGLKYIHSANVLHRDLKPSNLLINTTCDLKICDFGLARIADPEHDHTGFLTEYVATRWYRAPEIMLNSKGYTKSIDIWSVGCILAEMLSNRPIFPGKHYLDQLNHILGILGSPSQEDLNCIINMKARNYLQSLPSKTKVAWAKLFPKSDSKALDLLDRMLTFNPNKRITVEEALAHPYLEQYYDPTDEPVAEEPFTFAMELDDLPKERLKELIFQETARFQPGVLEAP

[10] = biological target: Protein Serine/Threonine Kinase, MAPK8 (JNK1) (Homo sapiens, UniProt P45983); assay: biochemical; design: Cerep/Eurofins selectivity panel, enzymes, per cent inhibition at 10 uM; conditions: read-out: % Inhibition
Phosphodiesterase PDE5 = biological target: T15, Phosphodiesterase PDE5 (Homo sapiens, UniProt O76074); assay: biochemical; design: Cerep/Eurofins selectivity panel, enzymes, per cent inhibition at 10 uM; conditions: read-out: % Inhibition
T15 construct: gene PDE5A

[11] = biological target: T16, Protein Tyrosine Kinase, EGF receptor (Homo sapiens, UniProt P00533); assay: biochemical; design: Cerep/Eurofins selectivity panel, enzymes, per cent inhibition at 10 uM; conditions: read-out: % Inhibition
T16 construct: gene EGFR

Peptidase, Renin = biological target: T17, Peptidase, Renin (Homo sapiens, UniProt P00797); assay: biochemical; design: Cerep/Eurofins selectivity panel, enzymes, per cent inhibition at 10 uM; conditions: read-out: % Inhibition
T17 construct: gene REN

[12] = biological target: Protein Serine/Threonine Phosphatase, PPP3CA (Calccineurin, PP2B) (Homo sapiens, UniProt Q08209); assay: biochemical; design: Cerep/Eurofins selectivity panel, enzymes, per cent inhibition at 10 uM; conditions: read-out: % Inhibition
[13] = biological target: Protein Serine/Threonine Kinase, GSK3B (Homo sapiens, UniProt P49841); assay: biochemical; design: Cerep/Eurofins selectivity panel, enzymes, per cent inhibition at 10 uM; conditions: read-out: % Inhibition
Monoamine Oxidase MAO-B = biological target: T18, Monoamine Oxidase MAO-B (Homo sapiens, UniProt P27338); assay: biochemical; design: Cerep/Eurofins selectivity panel, enzymes, per cent inhibition at 10 uM; conditions: read-out: % Inhibition
T18 construct: gene MAOB
T18 sequence (P27338 whole entry): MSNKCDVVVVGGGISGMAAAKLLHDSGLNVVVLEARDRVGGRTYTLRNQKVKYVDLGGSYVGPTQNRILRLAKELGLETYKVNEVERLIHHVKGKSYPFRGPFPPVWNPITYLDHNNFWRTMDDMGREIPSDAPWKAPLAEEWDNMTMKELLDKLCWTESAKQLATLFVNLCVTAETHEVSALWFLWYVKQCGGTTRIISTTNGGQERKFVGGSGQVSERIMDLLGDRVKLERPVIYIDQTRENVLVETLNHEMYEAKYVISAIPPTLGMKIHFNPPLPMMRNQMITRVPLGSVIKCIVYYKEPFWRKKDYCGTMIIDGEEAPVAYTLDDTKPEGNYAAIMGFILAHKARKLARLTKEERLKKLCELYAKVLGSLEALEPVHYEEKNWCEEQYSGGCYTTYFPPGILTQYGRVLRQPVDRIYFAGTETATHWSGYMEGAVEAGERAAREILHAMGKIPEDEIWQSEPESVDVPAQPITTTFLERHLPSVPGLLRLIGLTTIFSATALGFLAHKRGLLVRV

[14] = biological target: Protein Tyrosine Kinase, SRC (Homo sapiens, UniProt P12931); assay: biochemical; design: Cerep/Eurofins selectivity panel, enzymes, per cent inhibition at 10 uM; conditions: read-out: % Inhibition
Sequence of Protein Tyrosine Kinase, SRC (P12931 whole entry): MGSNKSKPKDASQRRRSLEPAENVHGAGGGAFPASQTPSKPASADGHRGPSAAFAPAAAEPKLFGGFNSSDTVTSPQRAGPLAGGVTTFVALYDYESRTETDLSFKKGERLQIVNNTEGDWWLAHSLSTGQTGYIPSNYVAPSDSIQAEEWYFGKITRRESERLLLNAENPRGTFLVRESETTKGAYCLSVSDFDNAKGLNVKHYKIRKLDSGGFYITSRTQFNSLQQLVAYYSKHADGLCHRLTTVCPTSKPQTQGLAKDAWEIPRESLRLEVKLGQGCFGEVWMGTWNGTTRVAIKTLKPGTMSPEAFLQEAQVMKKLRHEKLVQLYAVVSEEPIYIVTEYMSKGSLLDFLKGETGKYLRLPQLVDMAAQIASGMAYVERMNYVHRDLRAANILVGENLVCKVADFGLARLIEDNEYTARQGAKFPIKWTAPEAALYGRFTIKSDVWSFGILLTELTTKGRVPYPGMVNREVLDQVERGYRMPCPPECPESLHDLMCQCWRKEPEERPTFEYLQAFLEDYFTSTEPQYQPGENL

Cyclooxygenase COX-2 = biological target: T19, Cyclooxygenase COX-2 (Homo sapiens, UniProt P35354); assay: biochemical; design: Cerep/Eurofins selectivity panel, enzymes, per cent inhibition at 10 uM; conditions: read-out: % Inhibition
T19 construct: gene PTGS2

C[C@]1(Nc2cnc(C(F)(F)F)cn2)CCC[C@@H]1NC(=O)c1ncccc1-n1nccn1 [CVN45502]
inhibition at 10 µM (Calcium Channel N-type): -1% | inhibition at 10 µM [1]: 2% | inhibition at 10 µM (Xanthine Oxidase): 16% | inhibition at 10 µM [2]: 4% | inhibition at 10 µM [3]: 22% | inhibition at 10 µM [4]: -1% | IC50 (mouse Hcrtr1): 18 nM | inhibition at 10 µM [5]: -4% | inhibition at 10 µM (5-Lipoxygenase): 14% | inhibition at 10 µM [6]: 35% | inhibition at 10 µM (Peptidase, Factor Xa): -2% | inhibition at 10 µM (Monoamine Oxidase MAO-A): 11% | inhibition at 10 µM (Carbonic Anhydrase II): -4% | inhibition at 10 µM [7]: 6% | inhibition at 10 µM [8]: -1% | inhibition at 10 µM [9]: 8% | inhibition at 10 µM [10]: 6% | inhibition at 10 µM (Phosphodiesterase PDE5): 29% | inhibition at 10 µM [11]: -22% | inhibition at 10 µM (Peptidase, Renin): 10% | inhibition at 10 µM [12]: 12% | inhibition at 10 µM [13]: 8% | inhibition at 10 µM (Monoamine Oxidase MAO-B): 8% | inhibition at 10 µM [14]: -7% | inhibition at 10 µM (Cyclooxygenase COX-2): -13%
